Data from patent US8440825B2, “Fumaric acid salt of varenicline” (Medichem S.A., priority 2008, dated 2013).
Structures can show the parent of a compound that is named as a salt.

How the values were obtained:
[1] = Stability studies of varenicline crystalline salts (one year storage, HPLC and XRD); assay type: physicochemical; details: for Purity (HPLC) % 1 year later: after one year at room temperature; for Purity (HPLC) % 1 year later / Purity (HPLC) % initial / XRD result 1 year later: normal pressure, ambient atmosphere; for XRD result Initial: initial polymorphic form, before storage; for Purity (HPLC) % initial: before storage at room temperature; for Stability in terms of chemical purity and polymorphic form (in words): after one year of storage; for XRD result 1 year later: polymorphic form after one year at room temperature
Method: The varenicline crystalline salts were stored under standard conditions (i.e. room temperature, normal pressure, ambient atmosphere). The samples were analyzed after one year by HPLC and XRD.

[2] = Solubility in water of varenicline salts; assay type: physicochemical

Molecule: O=C(O)C(O)c1ccccc1.c1cnc2cc3c(cc2n1)C1CNCC3C1 (racemic) [Example 10, varenicline DL-mandelate]
- Purity (HPLC) % 1 year later [1]: 95.55%
- XRD result Initial [1]: Form I
- Purity (HPLC) % initial [1]: 99.93%

Molecule: CC(O)C(=O)O.c1cnc2cc3c(cc2n1)C1CNCC3C1 (racemic) [Example 17, varenicline DL-lactate]
- Purity (HPLC) % 1 year later [1]: 98.48%
- XRD result Initial [1]: Form I
- Purity (HPLC) % initial [1]: 98.98%

Molecule: O=C(O)CCCCC(=O)O.c1cnc2cc3c(cc2n1)C1CNCC3C1.c1cnc2cc3c(cc2n1)C1CNCC3C1 [Example 1, varenicline hemi-adipate]
- Purity (HPLC) % 1 year later [1]: 99.77%
- Stability in terms of chemical purity and polymorphic form (in words) [1]: highly stable in terms of chemical purity and of polymorphic form
- XRD result Initial [1]: Form I
- Purity (HPLC) % initial [1]: 99.89%
- XRD result 1 year later [1]: Form I

Molecule: O=C(O)CCCC(=O)O.c1cnc2cc3c(cc2n1)C1CNCC3C1 [Example 3, varenicline glutarate]
- Purity (HPLC) % 1 year later [1]: 97.90%
- XRD result Initial [1]: Form I
- Purity (HPLC) % initial [1]: 98.77%

Molecule: c1cnc2cc3c(cc2n1)[C@@H]1CNC[C@H]3C1 [Example 5, varenicline hydrochloride]
- solubility [2]: > 20 mg/mL

Molecule: O=C(O)CCC(=O)C(=O)O.c1cnc2cc3c(cc2n1)C1CNCC3C1 [Example 6, varenicline α-ketoglutarate]
- Purity (HPLC) % 1 year later [1]: 98.45%
- XRD result Initial [1]: Form I
- Purity (HPLC) % initial [1]: 99.71%

Molecule: O=C(O)CC(=O)O.c1cnc2cc3c(cc2n1)C1CNCC3C1 [Example 9, varenicline malonate]
- Purity (HPLC) % 1 year later [1]: 99.45%
- XRD result Initial [1]: Form I
- Purity (HPLC) % initial [1]: 99.91%

Molecule: O=S(=O)(O)CCS(=O)(=O)O.c1cnc2cc3c(cc2n1)C1CNCC3C1.c1cnc2cc3c(cc2n1)C1CNCC3C1 [Example 18, Varenicline Hemi-1,2-Ethane Disulfonate]
- Purity (HPLC) % 1 year later [1]: 99.36%
- XRD result Initial [1]: Form I
- Purity (HPLC) % initial [1]: 99.97%

Molecule: c1cnc2cc3c(cc2n1)[C@@H]1CNC[C@H]3C1 [Hydrochloride, varenicline hydrochloride, reference compound]
- Purity (HPLC) % 1 year later [1]: 99.68%
- XRD result Initial [1]: Form II
- Purity (HPLC) % initial [1]: 99.91%
- XRD result 1 year later [1]: Forms II + III

Molecule: varenicline L-malate [Example 7]
- Solubility in water [2]: >20 mg/mL
- Solubility in water (in words) [2]: highly soluble
- Purity (HPLC) % 1 year later ([1]; listed as Malate Form I): 99.47%
- Stability in terms of chemical purity and polymorphic form (in words) ([1]; listed as varenicline L-malate Form I): stable in terms of chemical purity
- XRD result Initial ([1]; listed as Malate Form I): Form I
- Purity (HPLC) % initial ([1]; listed as Malate Form I): 99.95%

Molecule: varenicline L-malate [Malate Form II]
- Purity (HPLC) % 1 year later [1]: 99.66%
- Stability in terms of chemical purity and polymorphic form (in words) ([1]; listed as varenicline L-malate Form II): highly stable in terms of chemical purity and of polymorphic form
- XRD result Initial [1]: Form II
- Purity (HPLC) % initial [1]: 99.94%
- XRD result 1 year later [1]: Form II

Molecule: varenicline S-2-pyrrolidinon-5-carboxylate [Example 14]
- Purity (HPLC) % 1 year later [1]: 99.83%
- Stability in terms of chemical purity and polymorphic form (in words) [1]: highly stable in terms of chemical purity and in terms of polymorphic form
- XRD result Initial [1]: Form I
- Purity (HPLC) % initial [1]: 99.99%
- XRD result 1 year later [1]: Form I

Molecule: varenicline di-mesylate [Example 11]
- Solubility in water [2]: >20 mg/mL
- Purity (HPLC) % 1 year later [1]: 99.28%
- XRD result Initial [1]: Form I
- Purity (HPLC) % initial [1]: 99.99%

Molecule: varenicline fumarate [Example 2]
- Solubility in water [2]: >20 mg/mL
- Solubility in water (in words) [2]: highly soluble
- Purity (HPLC) % 1 year later [1]: 99.76%
- Stability in terms of chemical purity and polymorphic form (in words) [1]: highly stable in terms of chemical purity and of polymorphic form
- XRD result Initial [1]: Form I
- Purity (HPLC) % initial [1]: 99.84%
- XRD result 1 year later [1]: Form I

Molecule: varenicline galactarate [Example 16]
- Solubility in water [2]: >20 mg/mL
- Solubility in water (in words) [2]: highly soluble
- Purity (HPLC) % 1 year later [1]: 99.71%
- Stability in terms of chemical purity and polymorphic form (in words) [1]: highly stable in terms of chemical purity and of polymorphic form
- XRD result Initial [1]: Form I
- Purity (HPLC) % initial [1]: 99.91%
- XRD result 1 year later [1]: Form I

Molecule: varenicline glycolate [Example 4]
- Purity (HPLC) % 1 year later [1]: 99.57%
- XRD result Initial [1]: Form I
- Purity (HPLC) % initial [1]: 99.95%

Molecule: varenicline maleate [Example 8]
- Solubility in water [2]: >20 mg/mL
- Solubility in water (in words) [2]: highly soluble
- Purity (HPLC) % 1 year later [1]: 99.90%
- Stability in terms of chemical purity and polymorphic form (in words) [1]: highly stable in terms of chemical purity and of polymorphic form
- XRD result Initial [1]: Form I
- Purity (HPLC) % initial [1]: 100%
- XRD result 1 year later [1]: Form I

Molecule: varenicline oxalate [Example 12]
- Solubility in water [2]: >20 mg/mL
- Purity (HPLC) % 1 year later [1]: 99.72%
- XRD result Initial [1]: Form I
- Purity (HPLC) % initial [1]: 99.91%

Molecule: varenicline phosphate [Example 13]
- Solubility in water [2]: >20 mg/mL
- Solubility in water (in words) [2]: highly soluble
- Purity (HPLC) % 1 year later ([1]; listed as Phosphate Form I): 99.89%
- Stability in terms of chemical purity and polymorphic form (in words) [1]: highly stable in terms of chemical purity and in terms of polymorphic form
- XRD result Initial ([1]; listed as Phosphate Form I): Form I
- Purity (HPLC) % initial ([1]; listed as Phosphate Form I): 100%
- XRD result 1 year later ([1]; listed as Phosphate Form I): Form I

Molecule: varenicline phosphate [Phosphate Form II]
- Purity (HPLC) % 1 year later [1]: 99.93%
- XRD result Initial [1]: Form II
- Purity (HPLC) % initial [1]: 99.89%
- XRD result 1 year later [1]: Form II

Molecule: varenicline succinate [Example 15]
- Solubility in water [2]: >20 mg/mL
